Assay results from US20050203082A1, “Combination therapy with inhibitors of inducible nitric oxide synthase and alkylating agents” (priority 2003, published 2005).
Where a name gives a salt, the structure may show the parent alone.

Assays:
human cartilage explants = experiment: Human cartilage explant assay (IL-1 induced nitrite production); type: cell-based; conditions: inhibition of nitrite production, IL-1 stimulated explants
From the text: Bone pieces are rinsed twice with Dulbecco's Phosphate Buffered Saline (GibcoBRL) and once with Dulbecco's Modified Eagles Medium (GibcoBRL) and placed into a petri dish with phenol red free Minimum Essential Medium (MEM) (GibcoBRL). […] The culture media was either a custom modification of Minimum Essential Medium(Eagle) with Earle's salts (GibcoBRL) prepared without L-Arginine, without L-Glutamine and without phenol red or a custom modification of serumless Neuman and Tytell (GibcoBRL) medium prepared without L-arginine, without insulin, without ascorbic acid, without L-glutamine and without phenol red. Both are supplemented before use with 100 μM L-Arginine (Sigma), 2 mM L-glutamine, 1× HL-1 supplement (BioWhittaker), […] ascorbic acid (Sigma) and 150 pg/ml recombinant human IL-1[…] (RD Systems) to induce nitric oxide synthase. Compounds are then added in 10 μL aliquots and the explants incubated at 37° C. with 5% CO2 for 18-24 hr. The day old supernatant is then discarded and replaced with fresh culture media containing recombinant human IL-1β and compound and incubated for another 20-24 hr. […] All samples are done in quadruplicate. Unstimulated controls are cultured in media in the absence of recombinant human IL-1{tilde over (□)} IC50 values (Table I) are determined from plotting the percent inhibition of nitrite production at 6 different concentrations of inhibitor.

recurrent GBM = recurrent GBM after resection and radiotherapy; cited from earlier work
[1] = tested on: inducible nitric oxide synthase activity in vivo; experiment: In vivo assay: LPS-induced plasma nitrite/nitrate in endotoxin-treated rats; parameters: species or system rat; conditions: oral administration, plasma nitrite/nitrate 5 hr post-treatment; for ED50: Rattus norvegicus
From the text: Plasma nitrite/nitrate levels can be determined 5 hr post-treatment.

[2] = tested on: C6 cells overexpressing iNOS; conditions: concentration-dependent; cited from earlier work

| Compound | IC50 (human cartilage explants; Homo sapiens) | ED50 [1] | other results |
| --- | --- | --- | --- |
| CC(=N)NCC(F)=CCC[C@H](N)C(=O)O (mixture of isomers) [Example B, (2S,5E/Z)-2-amino-6-fluoro-7-[(1-iminoethyl)amino]-5-heptenoic acid, dihydrochloride] | 200 nM | – | – |
| O=NN(CCCl)C(=O)NCCCl [BCNU, 1,3-bis(β-chloroethyl)-1-nitrosourea] | – | – | response rate (recurrent GBM): about 30% |
| O=NN(CCCl)C(=O)NC1CCCCC1 [CCNU, urea, N-(2-chloroethyl)-N′ cyclohexyl-N-nitroso-(9CI)] | – | – | response rate (recurrent GBM): about 30% |
| CC(=N)NC/C(F)=C\CC[C@H](N)C(=O)O [Example A, (2S,5E)-2-amino-6-fluoro-7-[(1-iminoethyl)amino]-5-heptenoic acid, dihydrochloride] | 100 nM | < 0.1 mg/kg | ED50 in endotoxin-treated rats ([1]; dihydrochloride): <0.1 mg/kg |
| CC(=N)NC/C(F)=C/CC[C@H](N)C(=O)O [Example D, (2S,5Z)-2-amino-6-fluoro-7-[(1-iminoethyl)amino]-5-heptenoic acid, trihydrochloride, dihydrate] | 2500 nM | > 10 mg/kg | – |
| CC(=NO)NC/C(F)=C\CC[C@H](N)C(=O)O [Example G, (2S,5E)-2-amino-6-fluoro-7-[(1-hydroximinoethyl)amino]-5-heptenoic acid] | – | < 0.1 mg/kg | melting point: 198 to 200 °C |
| CC(=N)NC/C(F)=C\CC[C@H](N)C(=O)Nc1nnn[nH]1 [Example H, (2S,5E)-2-amino-6-fluoro-7-[(1-iminoethyl)amino]-N-(1H-tetrazol-5-yl) 5-heptenamide, dihydrochloride] | – | < 0.3 mg/kg | – |
| CC(=N)NC/C(F)=C\CC[C@](C)(N)C(=O)O.Cl.Cl [Example HH, (2S,5E)-2-amino-2-methyl-6-fluoro-7-[(1-iminoethyl)amino]-5-heptenoic acid, dihydrochloride] | 400 nM | 0.4 mg/kg | – |
| COC[C@](N)(CSCCNC(C)=N)C(=O)O [Example J, 2-[[[2-[(1-Iminoethyl)amino]ethyl]thiolmethyl]-O-methyl-D-serine, dihydrochloride] | – | – | IC50 (human cartilage explants): 8200 nM |
| CC(=N)NC/C=C\CC[C@](C)(N)C(=O)O [Example LL, (2S,5Z)-7-acetimidoylamino-2-amino-2-methyl-hept-5-enoic acid] | 800 nM | 0.3 mg/kg | – |
| Cl.N=C1CCCC[C@H](CCCC[C@@H](N)C(=O)O)N1.O.O.O [Example V, (αR,2S)-α-aminohexahydro-7-imino-1H-azepine-2-hexanoic acid, trihydrate hydrochloride] | < 10000 nM | < 3 mg/kg | – |
| N=C1CCCC[C@H](CCCC[C@H](N)C(=O)O)N1 [Example X, (αS,2S)-α-aminohexahydro-7-imino-1H-azepine-2-hexanoic acid, trihydrate hydrochloride] | – | – | IC50 (human cartilage explants): < 10000 nM |
| N=C1CCCC[C@H](CCCC[C@H](N)C(=O)O)N1 [Example Z, (αS,2S)-α-aminohexahydro-7-imino-1H-azepine-2-hexanoic acid, trihydrate hydrochloride] | < 10000 nM | – | – |
| COC(=O)[C@@H](N)CCCNC(=N)N[N+](=O)[O-] [L-NAME] | – | – | BCNU toxicity [2]: restoration of BCNU toxicity; nitrite levels [2]: reduced the nitrite levels |
